Assay [1] has as its target Fibroblast growth factor receptor 3 (Homo sapiens, UniProt P22607). As to the kind of experiment: Inhibition Assay: FGFR3: The in vitro activity of FGFR3 was determined by assaying the phosphorylation level of the substrate in the kinase reaction, by means of an HTRF kinase assay kit. The reaction buffer comprised the following components: 5-fold diluted Enzymatic buffer/kinase 5×(main ingredient: 50 mM HEPES, pH 7.0), 5 mM MgCl2, 1 mM DTT; the human recombinant FGFR3 catalytic structural domain protein (amino acids 399-806), diluted with the reaction buffer to a 0.3 ng/μL kinase solution; the substrate reaction solution comprised a biotin labeled tyrosine kinase substrate diluted with the reaction buffer to 1000 nM, and 90 μM ATP, and the assay solution comprised an Eu3+ labeled cage-shaped antibody diluted with the assay buffer to 0.125 ng/μL, and 62.5 nM streptavidin labeled XL665.

Assay [2] concerns the target Fibroblast growth factor receptor 1 (Homo sapiens, UniProt P11362). As to the kind of experiment: Inhibition Assay: FGFR1: The in vitro activity of FGFR1 was determined by assaying the phosphorylation level of the substrate in the kinase reaction, by means of an HTRF kinase assay kit. The reaction buffer comprised the following components: 5-fold diluted Enzymatic buffer/kinase 5× (main ingredient: 50 mM HEPES, pH 7.0), 5 mM MgCl2, 1 mM DTT; the human recombinant FGFR1 catalytic structural domain protein (amino acids 308-731) was purified by the company itself, diluted with the reaction buffer to a 0.6 ng/μL kinase solution; the substrate reaction solution comprised a biotin labeled tyrosine kinase substrate diluted with the reaction buffer to 400 nM , and 40 μM ATP, and the assay solution comprised an Eu3+ labeled cage-shaped antibody diluted with the assay buffer to 0.125 ng/μL, and 25 nM streptavidin labeled XL665.

Assay [3] deals with Fibroblast growth factor receptor 4 (Homo sapiens, UniProt P22455). The experiment in a line: Inhibition Assay: FGFR4:The in vitro activity of FGFR4 was determined by assaying the phosphorylation level of the substrate in the kinase reaction, by means of an HTRF kinase assay kit. The reaction buffer comprised the following components: 5-fold diluted Enzymatic buffer/kinase 5×(main ingredient: 50 mM HEPES, pH 7.0), 5 mM MgCl2, 1 mM DTT; the human recombinant FGFR4 catalytic structural domain protein (amino acids 460-802), diluted with the reaction buffer to a 0.5 ng/μL kinase solution; the substrate reaction solution comprised a biotin labeled tyrosine kinase substrate diluted with the reaction buffer to 500 nM , and 90 μM ATP, and the assay solution comprised an Eu3+ labeled cage-shaped antibody diluted with the assay buffer to 0.125 ng/μL, and 31.25 nM streptavidin labeled XL665).
Chain of Fibroblast growth factor receptor 4 (P22455 whole entry, the tested form may be a part): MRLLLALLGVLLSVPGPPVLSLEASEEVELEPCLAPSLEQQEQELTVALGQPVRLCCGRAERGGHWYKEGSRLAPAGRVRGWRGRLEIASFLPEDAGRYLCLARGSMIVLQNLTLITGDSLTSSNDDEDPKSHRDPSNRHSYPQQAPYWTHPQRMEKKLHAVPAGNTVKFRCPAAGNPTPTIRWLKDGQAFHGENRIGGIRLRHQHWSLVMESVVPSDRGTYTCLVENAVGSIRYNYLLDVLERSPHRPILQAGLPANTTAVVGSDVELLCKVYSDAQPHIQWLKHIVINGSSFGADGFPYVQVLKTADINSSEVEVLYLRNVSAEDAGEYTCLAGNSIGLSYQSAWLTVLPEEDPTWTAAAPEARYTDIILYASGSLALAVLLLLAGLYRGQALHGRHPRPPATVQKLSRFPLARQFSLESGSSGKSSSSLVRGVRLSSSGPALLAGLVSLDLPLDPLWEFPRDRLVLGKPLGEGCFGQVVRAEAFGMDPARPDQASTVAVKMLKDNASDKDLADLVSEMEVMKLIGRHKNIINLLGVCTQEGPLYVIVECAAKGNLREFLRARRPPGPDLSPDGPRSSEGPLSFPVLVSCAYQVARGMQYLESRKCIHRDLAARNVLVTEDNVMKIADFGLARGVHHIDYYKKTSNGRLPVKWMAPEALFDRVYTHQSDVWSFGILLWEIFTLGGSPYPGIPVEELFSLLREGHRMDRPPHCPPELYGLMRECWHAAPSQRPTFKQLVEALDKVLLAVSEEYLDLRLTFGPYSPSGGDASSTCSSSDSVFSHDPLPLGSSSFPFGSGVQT

The target in assay [4] is Fibroblast growth factor receptor 2 (Homo sapiens, UniProt P21802). The experiment in a line: Inhibition Assay: FGFR2: The in vitro activity of FGFR2 was determined by assaying the phosphorylation level of the substrate in the kinase reaction, by means of an HTRF kinase assay kit. The reaction buffer comprised the following components: 5-fold diluted Enzymatic buffer/kinase 5× (main ingredient: 50 mM HEPES, pH 7.0), 5 mM MgCl2, 1 mM DTT; the human recombinant FGFR2 catalytic structural domain protein (amino acids 400-821) was commercially available from Beijing Sino Biological Inc., diluted with the reaction buffer to a 0.045 ng/μL kinase solution; the substrate reaction solution comprised a biotin labeled tyrosine kinase substrate diluted with the reaction buffer to 800 nM, and 50 μM ATP, and the assay solution comprised an Eu3+ labeled cage-shaped antibody (Cisbio, Catalog number 61T66KLB) diluted with the assay buffer (Cisbio, Catalog number 62SDBRDF) to 0.125 ng/μL, and 50 nM streptavidin labeled XL665.
Chain of Fibroblast growth factor receptor 2 (P21802 whole entry, the tested form may be a part): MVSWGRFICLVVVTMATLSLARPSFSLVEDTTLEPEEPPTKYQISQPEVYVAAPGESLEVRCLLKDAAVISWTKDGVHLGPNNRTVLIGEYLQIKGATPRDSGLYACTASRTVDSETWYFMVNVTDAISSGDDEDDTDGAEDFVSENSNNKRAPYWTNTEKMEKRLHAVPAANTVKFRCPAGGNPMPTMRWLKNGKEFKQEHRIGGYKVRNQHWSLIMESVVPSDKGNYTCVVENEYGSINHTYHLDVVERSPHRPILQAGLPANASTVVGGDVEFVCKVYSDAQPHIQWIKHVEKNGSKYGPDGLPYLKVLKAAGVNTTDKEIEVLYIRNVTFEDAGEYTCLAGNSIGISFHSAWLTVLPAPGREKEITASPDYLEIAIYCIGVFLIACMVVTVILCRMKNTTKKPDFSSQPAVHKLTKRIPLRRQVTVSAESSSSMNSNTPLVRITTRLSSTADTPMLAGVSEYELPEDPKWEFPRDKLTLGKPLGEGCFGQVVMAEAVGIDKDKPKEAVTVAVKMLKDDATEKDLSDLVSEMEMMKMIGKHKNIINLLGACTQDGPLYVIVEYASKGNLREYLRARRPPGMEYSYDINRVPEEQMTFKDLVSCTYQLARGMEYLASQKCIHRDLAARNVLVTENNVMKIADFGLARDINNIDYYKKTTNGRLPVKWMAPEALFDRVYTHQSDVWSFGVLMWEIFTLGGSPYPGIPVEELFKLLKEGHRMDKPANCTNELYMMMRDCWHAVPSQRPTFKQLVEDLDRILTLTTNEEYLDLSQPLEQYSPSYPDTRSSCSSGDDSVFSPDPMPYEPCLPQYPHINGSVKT

Chain of Fibroblast growth factor receptor 3 (P22607 whole entry, the tested form may be a part): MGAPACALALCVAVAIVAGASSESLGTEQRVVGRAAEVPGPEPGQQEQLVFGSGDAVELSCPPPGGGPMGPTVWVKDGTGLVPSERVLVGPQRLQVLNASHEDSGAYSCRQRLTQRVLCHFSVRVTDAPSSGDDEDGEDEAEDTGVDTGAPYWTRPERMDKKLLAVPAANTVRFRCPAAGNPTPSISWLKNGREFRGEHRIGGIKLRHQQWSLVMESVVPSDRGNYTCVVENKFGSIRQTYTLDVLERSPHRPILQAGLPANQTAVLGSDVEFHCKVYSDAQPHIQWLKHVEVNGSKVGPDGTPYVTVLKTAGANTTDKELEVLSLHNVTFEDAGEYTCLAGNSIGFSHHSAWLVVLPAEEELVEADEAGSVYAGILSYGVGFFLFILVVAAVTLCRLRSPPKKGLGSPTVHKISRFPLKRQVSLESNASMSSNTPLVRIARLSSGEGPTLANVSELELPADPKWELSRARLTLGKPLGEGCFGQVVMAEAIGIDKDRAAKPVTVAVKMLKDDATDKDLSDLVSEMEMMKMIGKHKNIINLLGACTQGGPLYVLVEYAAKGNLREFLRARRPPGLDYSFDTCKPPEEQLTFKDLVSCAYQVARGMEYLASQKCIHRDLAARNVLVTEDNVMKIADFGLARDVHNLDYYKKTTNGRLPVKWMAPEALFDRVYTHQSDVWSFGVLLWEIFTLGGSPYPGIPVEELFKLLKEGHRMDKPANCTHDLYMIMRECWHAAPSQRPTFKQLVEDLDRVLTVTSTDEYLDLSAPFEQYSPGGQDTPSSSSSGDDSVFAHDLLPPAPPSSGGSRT
Chain of Fibroblast growth factor receptor 1 (P11362 whole entry, the tested form may be a part): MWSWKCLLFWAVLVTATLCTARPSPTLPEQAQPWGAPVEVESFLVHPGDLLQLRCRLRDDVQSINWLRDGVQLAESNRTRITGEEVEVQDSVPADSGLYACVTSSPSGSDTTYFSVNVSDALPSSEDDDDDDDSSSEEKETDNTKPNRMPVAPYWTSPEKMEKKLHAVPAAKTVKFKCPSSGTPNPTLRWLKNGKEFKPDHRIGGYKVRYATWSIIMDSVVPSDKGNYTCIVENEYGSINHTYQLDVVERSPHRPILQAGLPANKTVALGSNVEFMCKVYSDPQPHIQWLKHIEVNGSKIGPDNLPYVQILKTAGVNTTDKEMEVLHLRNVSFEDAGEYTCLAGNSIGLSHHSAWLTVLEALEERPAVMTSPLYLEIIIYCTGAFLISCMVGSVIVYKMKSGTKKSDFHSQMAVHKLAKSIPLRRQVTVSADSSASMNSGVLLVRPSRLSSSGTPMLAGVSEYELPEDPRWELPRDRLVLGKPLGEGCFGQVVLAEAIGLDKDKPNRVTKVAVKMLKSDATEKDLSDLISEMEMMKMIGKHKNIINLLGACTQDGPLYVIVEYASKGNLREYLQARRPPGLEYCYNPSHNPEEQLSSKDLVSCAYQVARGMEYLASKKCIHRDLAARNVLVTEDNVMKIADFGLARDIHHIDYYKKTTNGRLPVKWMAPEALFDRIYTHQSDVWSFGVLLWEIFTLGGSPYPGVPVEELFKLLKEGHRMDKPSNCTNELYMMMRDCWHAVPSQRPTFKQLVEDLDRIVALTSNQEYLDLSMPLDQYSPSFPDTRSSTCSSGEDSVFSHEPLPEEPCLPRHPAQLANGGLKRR

Regarding `CC(C)Oc1cc(NC(=O)N(C)c2ccc(CN3CCN(C)CC3=O)c(C=O)n2)ncc1C#N`, the IC50 in assay [1] is greater than 1000 nM; in assay [2], greater than 1000 nM; in assay [3] it was less than 10 nM; in assay [4], greater than 1000 nM.
On to `CC(C)Nc1cc(NC(=O)N(C)c2ccc(CN3CCOCC3=O)c(C=O)n2)ncc1C#N`, for which the IC50 was greater than 1000 nM in assay [1], greater than 1000 nM in assay [2], less than 10 nM in assay [3] and greater than 1000 nM in assay [4].
As for `C[C@@H](CO)Oc1cc(NC(=O)N(C)c2ccc(CN3CCN(C)CC3=O)c(C=O)n2)ncc1C#N`, the concentration for half-maximal inhibition (IC50) was greater than 1000 nM in assay [1], greater than 1000 nM in assay [2], less than 10 nM in assay [3] and greater than 1000 nM in assay [4].
Regarding `CC(C)Nc1cc(NC(=O)N(C)c2ccc(CN3CCN(C)CC3=O)c(C=O)n2)ncc1C#N`, the 50% inhibitory concentration (IC50) was greater than 1000 nM in assay [1], greater than 1000 nM in assay [2], less than 10 nM in assay [3] and greater than 1000 nM in assay [4].
On to `COC[C@H](C)Oc1cc(NC(=O)N(C)c2ccc(CN3CCN(C)CC3=O)c(C=O)n2)ncc1C#N`, for which the half-maximal inhibitory concentration (IC50) was greater than 1000 nM in assay [1], greater than 1000 nM in assay [2], less than 10 nM in assay [3] and greater than 1000 nM in assay [4].
As to `COCCOc1cc(NC(=O)N(C)c2ccc(CN3CCOCC3=O)c(C=O)n2)ncc1C#N`, the half-inhibitory concentration (IC50) was greater than 1000 nM in assay [1], greater than 1000 nM in assay [2], less than 10 nM in assay [3] and greater than 1000 nM in assay [4].
Turning to `CN1CCN(Cc2ccc(N(C)C(=O)Nc3cc(Cl)c(C#N)cn3)nc2C=O)C(=O)C1`, the IC50 in assay [1], in assay [2] and in assay [4] was greater than 1000 nM each time.
As to `COC[C@@H](C)Oc1cc(NC(=O)N(C)c2ccc(CN3CCN(C)CC3=O)c(C=O)n2)ncc1C#N`, the half-inhibitory concentration (IC50) in assay [1] was greater than 1000 nM; in assay [2], greater than 1000 nM; in assay [3], less than 10 nM; in assay [4], greater than 1000 nM.
On to `COCCNc1cc(NC(=O)N(C)c2ccc(CN3CCOCC3=O)c(C=O)n2)ncc1C#N`, for which the 50% inhibitory concentration (IC50) was greater than 1000 nM in assay [1], greater than 1000 nM in assay [2], less than 10 nM in assay [3] and greater than 1000 nM in assay [4].

(Values after ChEMBL document CHEMBL5727622, “Heterocyclic compounds used as FGFR inhibitors” (2020).)
